Where two headings read alike, the source gives them in different places.
Assays:
[1] = biological target: T1, SFRP-1 (Homo sapiens, UniProt Q8N474); assay: Cell-based assay for in vitro measurement of SFRP-1/SARP2 antagonist activity (U2OS cells co-transfected with 16x TCF-tk-Luciferase reporter, Wnt and hSFRP-1); conditions: for fold induction at 15 µM / fold induction at 10 µM: U2OS; for fold induction at 10 µM: read-out: Fold Induction with SFRP-1, U2OS cells, single dose 10 μM, luciferase reporter, fold induction over SFRP-1 control;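 on all read-outs here: U2OS cells co-transfected with a TCF-tk luciferase reporter, a Wnt vector, hSFRP-1 or empty vector and CMV-βgal, luciferase luminescence read in cell lysates alongside βgal activity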
T1 sequence (Q8N474 32-314): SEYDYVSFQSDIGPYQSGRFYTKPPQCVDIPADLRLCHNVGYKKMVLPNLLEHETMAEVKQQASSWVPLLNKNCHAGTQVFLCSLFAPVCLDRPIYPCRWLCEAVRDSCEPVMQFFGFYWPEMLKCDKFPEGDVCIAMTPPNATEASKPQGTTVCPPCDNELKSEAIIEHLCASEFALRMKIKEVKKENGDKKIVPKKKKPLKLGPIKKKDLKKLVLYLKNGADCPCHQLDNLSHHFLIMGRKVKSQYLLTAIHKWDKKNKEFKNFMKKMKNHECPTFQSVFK

[2] = biological target: T1, SFRP-1; assay: Fluorescence polarization binding assay (competitive displacement of a probe compound from SFRP-1); conditions: fluorescence anisotropy, 45 nM SFRP-1, 20 nM probe;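 further: test compound competes with a fluorescent probe held by SFRP-1, seen as a drop in probe anisotropy after incubation in darkness, with anisotropy as function of rising compound dose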
[3] = read-out: Fold Induction with SFRP-1, Conc 15 μM, single dose, luciferase reporter, fold induction over SFRP-1 control, cells with SFRP-1
[4] = read-out: Fold Induction without SFRP-1, Conc 15 μM, single dose, luciferase reporter, cells without SFRP-1 (specificity control)

| Compound | IC50 [2] [nM] | EC50 [1] [nM] | fold induction at 10 µM [1] | also measured |
| --- | --- | --- | --- | --- |
| CC(C)c1cc(C(C)C)c(S(=O)(=O)c2ccc(F)cc2)cc1S(=O)(=O)NCCc1ccncc1 [Example 633, 5-[(4-Fluorophenyl)sulfonyl]-2,4-diisopropyl-N-(2-pyridin-4-ylethyl)benzenesulfonamide] |  |  |  | fold induction at 15 µM [1, 3]: 1.5; fold induction at 15 µM [1, 4]: 1; melting point: 210 to 211 °C |
| O=C([C@@H]1CSCN1)N1CCC(NS(=O)(=O)c2cc(S(=O)(=O)c3ccccc3)ccc2C(F)(F)F)CC1 [Example 1056, 5-(phenylsulfonyl)-N-{1-[(4R)-1,3-thiazolidin-4-ylcarbonyl]piperidin-4-yl}-2-(trifluoromethyl)benzenesulfonamide] | 40 | 294 |  |  |
| O=C(c1ccccc1)c1ccc(C(=O)N2CCC(NS(=O)(=O)c3cc(S(=O)(=O)c4ccccc4)ccc3C(F)(F)F)CC2)cc1 [Example 800, N-[1-(4-benzoylbenzoyl)piperidin-4-yl]-5-(phenylsulfonyl)-2-(trifluoromethyl)benzenesulfonamide] | 400 | 738 | 3.6 |  |
| O=C(c1ccc(OC(F)(F)F)cc1)N1CCC(NS(=O)(=O)c2cc(S(=O)(=O)c3ccccc3)ccc2C(F)(F)F)CC1 [Example 709, 5-(phenylsulfonyl)-N-{1-[4-(trifluoromethoxy)benzoyl]piperidin-4-yl}-2-(trifluoromethyl)benzenesulfonamide] | 400 | 2350 | 4.5 |  |
| CC(C)c1ccc(S(=O)(=O)c2ccc(F)cc2)cc1S(=O)(=O)NCC(O)c1cccnc1 (centres unmarked) [Example 731, 5-[(4-fluorophenyl)sulfonyl]-N-(2-hydroxy-2-pyridin-3-ylethyl)-2-isopropylbenzenesulfonamide] | 1900 |  | 3.3 |  |
| O=S(=O)(NC1CCOCC1)c1cc(S(=O)(=O)c2ccc(F)cc2)ccc1C(F)(F)F [Example 817, 5-[(4-fluorophenyl)sulfonyl]-N-(tetrahydro-2H-pyran-4-yl)-2-(trifluoromethyl)benzenesulfonamide] | 300 | 1140 | 3.3 |  |
| C/C(=N\O)c1ccc(S(=O)(=O)c2ccc(C)c(S(=O)(=O)NC3CCOCC3)c2)cc1 [Example 402, 5-({4-[(1E)-N-hydroxyethanimidoyl]phenyl}sulfonyl)-2-methyl-N-(tetrahydro-2H-pyran-4-yl)benzenesulfonamide] | 2600 |  |  | fold induction at 15 µM ([1]; read-out: Fold Induction with SFRP-1, Conc 15 μM, with SFRP-1, fold induction over SFRP-1 control, single dose): 2.5; fold induction at 15 µM ([1]; read-out: Fold Induction without SFRP-1, Conc 15 μM, without SFRP-1, single dose): 1.1 |
| C#CCOC(=O)N1CCC(NS(=O)(=O)c2cc(S(=O)(=O)c3ccccc3)ccc2C)CC1 [Example 487, prop-2-yn-1-yl 4-({[2-methyl-5-(phenylsulfonyl)phenyl]sulfonyl}amino)piperidine-1-carboxylate] | 500 |  |  | fold induction at 15 µM [1, 3]: 2.1; fold induction at 15 µM [1, 4]: 1.1 |
| O=S(=O)(NCCc1ccncc1)c1cc(S(=O)(=O)c2ccccc2)ccc1C(F)(F)F [Example 771, 5-(phenylsulfonyl)-N-(2-pyridin-4-ylethyl)-2-(trifluoromethyl)benzenesulfonamide] | 80 | 733 | 3.5 |  |
| CN(CCNS(=O)(=O)c1cc(S(=O)(=O)c2ccccc2)ccc1C(F)(F)F)C(=O)N1CCOCC1 [Example 835, N-methyl-N-[2-({[5-(phenylsulfonyl)-2-(trifluoromethyl)phenyl]sulfonyl}amino)ethyl]morpholine-4-carboxamide] | 1000 |  | 3.3 |  |
| CC(=O)N1CC[C@@H](C(=O)N2CCC(NS(=O)(=O)c3cc(S(=O)(=O)c4ccccc4)ccc3C(F)(F)F)CC2)C1 [Example 1064, N-(1-{[(3R)-1-acetylpyrrolidin-3-yl]carbonyl}piperidin-4-yl)-5-(phenylsulfonyl)-2-(trifluoromethyl)benzenesulfonamide] | 60 | 193 |  |  |
